Results taken from patent US3954814A, “Alkadienylcyclopropanecarboxylates” (Sumitomo Chemical Company, Limited, priority 1971, dated 1976).
≈ marks a conversion by molar mass, not a printed value.

Experiments:
Format in all cases: in vivo
rice stem borer larvae = test: micro dropping (topical) test on hibernating rice stem borer larvae (Experimental Example 3); conditions: topical in acetone, head and tail of larvae, 3 days
Source text: The present compounds (1), (4), (8), (10), (14), (15), (22), (32), (36), (38), (41), (44), (48), (50), (51), (52), (53), (61), (66), (68), (72), (73), (80), (81), (90) and (93) and chrysanthemic acid esters corresponding thereto were individually dissolved in acetone to prepare insecticides of various concentrations. Using a micro dropping means, each of the insecticides was dropped to the head and tail of hibernating rice stem borer larvae.

house flies = test: Campbell's turn table oil spray test on house fly adults (Experimental Example 1); conditions: Musca domestica, 24 h, oil spray 5 ml, 10 min exposure, mortality after 1 day, read-out: LC50 (50 percent lethal concentration)
Method: The present compounds (1), (4), (8), (10), (14), (15), (20), (22), (32), (36), (38), (41), (44), (48), (50), (51), (52), (53), (61), (66), (68), (72), (73), (78), (80), (81), (90), (93) and (96), and chrysanthemic acid esters and pyrethric acid esters corresponding thereto were individually formulated by use of deodorized kerosene into oil sprays of various test concentrations.
Using the Campbell's turn table [disclosed in "Soap & Sanitary Chemicals," Vol. 14, No. 6, page 119 (1938)], 5 ml. of each of the oil sprays was sprayed. When 20 seconds had elapsed after the spraying, the shutter was opened, and adults of house flies (a group of about 100 flies) were exposed to the settling mist for 10 minutes and then transferred to an observation cage.
The above operation was repeated several times to measure the LC50 (50 percent lethal concentration) of each compound.

[1] = tested on: Northern house mosquitoes; test: knock-down test of oil sprays on Northern house mosquito adults in (70 cm)^3 glass chamber (Experimental Example 2); conditions: concentration of oil spray 0.1%
Method: The present compounds (1), (6), (20), (22), (23), (25), (27), (29), (30), (31), (39), (42), (43), (45), (49), (53), (56), (62), (64), (78), (81), (83), (85), (87), (88) and (89), and chrysanthemic acid esters and pyrethric acid esters corresponding thereto were individually formulated by use of deodorized kerosene into oil sprays of various test concentrations.
About 20 adults of Northern house mosquitoes were liberated in a (70 cm)^3 glass chamber, and 0.7 ml. of each of the oil sprays was sprayed into the chamber under a pressure of 1.5 kg/cm^2 by use of a glass atomizer. Subsequently, the number of knocked-down mosquitoes was counted to calculate the KT50 (50 percent knock down time) of each compound.

SMILES | LD50 (50 percent lethal dose) (rice stem borer larvae) | LC50 (house flies) | KT50 (50 percent knock down time) [1]
C=CCc1cc(C)c(COC(=O)C2C(C=C(C)C)C2(C)C)c(C)c1 (stereo not shown) [2,6-Dimethyl-4-allylbenzyl chrysanthemate, reference compound] | 0.35 γ/larva | 650 µg/mL (≈ 1990 µM) | 
CC(C)=CC1C(C(=O)OCc2cccc(Cc3ccccc3)c2)C1(C)C (stereo not shown) [3-Benzylbenzyl chrysanthemate, reference compound] | 1.20 γ/larva | 270 µg/mL (≈ 775 µM) | 
CC(C)=CC1C(C(=O)OCC=C(Cl)Cc2ccccc2)C1(C)C (stereo not shown) [3-Chloro-4-phenyl-2-butene-1-yl chrysanthemate, reference compound] | 0.68 γ/larva | 360 µg/mL (≈ 1080 µM) | 
CC(C)=CC1C(C(=O)OCc2cccc(Oc3ccccc3)c2)C1(C)C (stereo not shown) [3-Phenoxybenzyl chrysanthemate, reference compound] | 0.72 γ/larva | 170 µg/mL (≈ 485 µM) | 
CC(C)=CC1C(C(=O)OCc2cc3c(o2)CCCC3)C1(C)C (stereo not shown) [4,5-Tetramethylenefurfuryl chrysanthemate, reference compound] | 0.75 γ/larva | 160 µg/mL (≈ 529 µM) | 
C#CCc1ccc(COC(=O)C2C(C=C(C)C)C2(C)C)cc1 (stereo not shown) [4-Propargylbenzyl chrysanthemate, reference compound] | 0.99 γ/larva | 850 µg/mL (≈ 2870 µM) | 
CC(C)=CC1C(C(=O)OCc2ccc(Oc3ccccc3)o2)C1(C)C (stereo not shown) [5-Phenoxyfurfuryl chrysanthemate, reference compound] | 0.12 γ/larva | 85 µg/mL (≈ 250 µM) | 
C=CC(C)=CC1C(C(=O)OCc2cccc(Cc3ccccc3)c2)C1(C)C (stereo not shown) [Present compound (4), 3-Benzylbenzyl 2',2'-dimethyl-3'-(2"-methyl-1",3"-butadienyl)-cyclopropanecarboxylate] | 0.71 γ/larva | 110 µg/mL (≈ 305 µM) | 
C#CCc1ccc(COC(=O)C2C(C=C(C)C=C)C2(C)C)cc1 (stereo not shown) [Present compound (8), 4-Propargylbenzyl 2',2'-dimethyl-3'-(2"-methyl-1",3"-butadienyl)-cyclopropanecarboxylate] | 0.37 γ/larva | 500 µg/mL (≈ 1620 µM) | 
C=CC(C)=CC1C(C(=O)OCc2cc3c(o2)CCCC3)C1(C)C (stereo not shown) [Present compound (10), 4,5-Tetramethylenefurfuryl 2',2'-dimethyl-3'-(2"-methyl-1",3"-butadienyl)-cyclopropanecarboxylate] | 0.32 γ/larva | 120 µg/mL (≈ 382 µM) | 
C=CC(C)=CC1C(C(=O)OCc2ccc(Oc3ccccc3)o2)C1(C)C (stereo not shown) [Present compound (14), 5-Phenoxyfurfuryl 2',2'-dimethyl-3'-(2"-methyl-1",3"-butadienyl)-cyclopropanecarboxylate] | 0.040 γ/larva | 47 µg/mL (≈ 133 µM) | 
C=CC(C)=CC1C(C(=O)OCc2cccc(Oc3ccccc3)c2)C1(C)C (stereo not shown) [Present compound (15), 3-Phenoxybenzyl 2',2'-dimethyl-3'-(2"-methyl-1",3"-butadienyl)-cyclopropanecarboxylate] | 0.29 γ/larva | 68 µg/mL (≈ 188 µM) | 
C#CCc1ccc(C(C#C)OC(=O)C2C(C=C(C)C=C)C2(C)C)o1 (stereo not shown) [Present compound (20), 5-Propargylα-ethynylfurfuryl 2',2'-dimethyl-3'-(2"-methyl-1",3"-butadienyl)-cyclopropanecarboxylate] |  | 90 µg/mL (≈ 279 µM) | 102 s
C=CC(C)=CC1C(C(=O)OCC=C(Cl)Cc2ccccc2)C1(C)C (stereo not shown) [Present compound (32), 3-Chloro-4-phenyl-2-butene-1-yl 2',2'-dimethyl-3'-(2"-methyl-1",3"-butadienyl)-cyclopropanecarboxylate] | 0.52 γ/larva | 190 µg/mL (≈ 551 µM) | 
C=CCc1cc(C)c(COC(=O)C2C(C=C(C)C=C)C2(C)C)c(C)c1 (stereo not shown) [Present compound (36), 2,6-Dimethyl-4-allylbenzyl 2',2'-dimethyl-3'-(2"-methyl-1",3"-butadienyl)-cyclopropanecarboxylate] | 0.28 γ/larva | 390 µg/mL (≈ 1150 µM) | 
CC=CC(C)=CC1C(C(=O)OCc2coc(Cc3ccccc3)c2)C1(C)C (stereo not shown) [Present compound (38), 5-Benzyl-3-furylmethyl 2',2'-dimethyl-3'-(2"-methyl-1",3"-pentadienyl)-cyclopropanecarboxylate] | 0.102 γ/larva | 66 µg/mL (≈ 181 µM) | 
CC=CC(C)=CC1C(C(=O)OCc2cccc(Oc3ccccc3)c2)C1(C)C (stereo not shown) [Present compound (41), 3-Phenoxybenzyl 2',2'-dimethyl-3'-(2"-methyl-1",3"-pentadienyl)-cyclopropanecarboxylate] | 0.48 γ/larva | 100 µg/mL (≈ 266 µM) | 
CC(C)=CC(C)=CC1C(C(=O)OCc2coc(Cc3ccccc3)c2)C1(C)C (stereo not shown) [Present compound (44), 5-Benzyl-3-furylmethyl 2',2'-dimethyl-3'-(2",4"-dimethyl-1",3"-pentadienyl)-cyclopropanecarboxylate] | 0.145 γ/larva | 63 µg/mL (≈ 166 µM) | 
CC(C)=CC(C)=CC1C(C(=O)OCc2cccc(Oc3ccccc3)c2)C1(C)C (stereo not shown) [Present compound (48), 3-Phenoxybenzyl 2',2'-dimethyl-3'-(2",4"-dimethyl-1",3"-pentadienyl)-cyclopropanecarboxylate] | 0.56 γ/larva | 140 µg/mL (≈ 358 µM) | 
C=CC=CC1C(C(=O)OCc2coc(Cc3ccccc3)c2)C1(C)C (stereo not shown) [Present compound (50), 5-Benzyl-3-furylmethyl 2',2'-dimethyl-3'-(1",3"-butadienyl)-cyclopropanecarboxylate] | 0.057 γ/larva | 44 µg/mL (≈ 131 µM) | 
CC=CC=CC1C(C(=O)OCc2coc(Cc3ccccc3)c2)C1(C)C (stereo not shown) [Present compound (51), 5-Benzyl-3-furylmethyl 2',2'-dimethyl-3'-(1",3"-pentadienyl)-cyclopropanecarboxylate] | 0.065 γ/larva | 56 µg/mL (≈ 160 µM) | 
CC(C)=CC=CC1C(C(=O)OCc2coc(Cc3ccccc3)c2)C1(C)C (stereo not shown) [Present compound (52), 5-Benzyl-3-furylmethyl 2',2'-dimethyl-3'-(4"-methyl-1",3"-pentadienyl)-cyclopropanecarboxylate] | 0.100 γ/larva | 52 µg/mL (≈ 143 µM) | 
C=CC=CC1C(C(=O)OCc2cccc(Cc3ccccc3)c2)C1(C)C (stereo not shown) [Present compound (61), 3-Benzylbenzyl 2',2'-dimethyl-3"-(1",3"-butadienyl)-cyclopropanecarboxylate] | 0.50 γ/larva | 90 µg/mL (≈ 260 µM) | 
C#CCc1ccc(COC(=O)C2C(C=CC=C)C2(C)C)cc1 (stereo not shown) [Present compound (66), 4-Propargylbenzyl 2',2'-dimethyl-3'-(1",3"-butadienyl)-cyclopropanecarboxylate] | 0.31 γ/larva | 350 µg/mL (≈ 1190 µM) | 
C=CC=CC1C(C(=O)OCc2cc3c(o2)CCCC3)C1(C)C (stereo not shown) [Present compound (68), 4,5-Tetramethylenefurfuryl 2',2'-dimethyl-3'-(1",3"-butadienyl)-cyclopropanecarboxylate] | 0.26 γ/larva | 110 µg/mL (≈ 366 µM) | 
C=CC=CC1C(C(=O)OCc2ccc(Oc3ccccc3)o2)C1(C)C (stereo not shown) [Present compound (72), 5-Phenoxyfurfuryl 2',2'-dimethyl-3'-(1",3"-butadienyl)-cyclopropanecarboxylate] | 0.034 γ/larva | 41 µg/mL (≈ 121 µM) | 
C=CC=CC1C(C(=O)OCc2cccc(Oc3ccccc3)c2)C1(C)C (stereo not shown) [Present compound (73), 3-Phenoxybenzyl 2',2'-dimethyl-3'-(1",3"-butadienyl)-cyclopropanecarboxylate] | 0.26 γ/larva | 60 µg/mL (≈ 172 µM) | 
C#CCc1ccc(C(C#C)OC(=O)C2C(C=CC=C)C2(C)C)o1 (stereo not drawn) [Present compound (78), 5-Propargyl-α-ethynylfurfuryl 2',2'-dimethyl-3'-(1",3"-butadienyl)-cyclopropanecarboxylate] |  | 82 µg/mL (≈ 266 µM) | 93 s
C=CC=CC1C(C(=O)OC(C#N)c2cccc(Oc3ccccc3)c2)C1(C)C (stereo not drawn) [Present compound (80), 3-Phenoxy-α-cyanobenzyl 2',2'-dimethyl-3'-(1",3"-butadienyl)-cyclopropanecarboxylate] | 0.005 γ/larva | 35 µg/mL (≈ 93.7 µM) | 
